The melting point is the temperature of the solid-liquid transition.

Where only a bound is given, the exact number is not on record here.

`Cc1ccc(S(=O)(=O)c2c(N)c3nccn3c3nccnc23)cc1` [Example 1, 5-[(4-Methylphenyl)sulfonyl]-imidazo[1′,2′:1,6]pyrido[2,3-b]pyrazin-6-amine] showed a melting point of 294 to 295 °C.

`Cc1ccc(S(=O)(=O)c2c(N)c3nncn3c3nccnc23)cc1` [Example 2, 5-[(4-methylphenyl)sulfonyl]-[1,2,4]triazolo[4′,3′:1,6]pyrido[2,3-b]pyrazin-6-amine] returned a melting point above 300 °C.

Turning to `CCc1ccc(S(=O)(=O)c2c(N)c3nccn3c3nccnc23)cc1` [Example 3, 5-[(4-ethylphenyl)sulfonyl]-imidazo[1′,2′:1,6]pyrido[2,3-b]pyrazin-6-amine], the melting point is 267.5 to 268.5 °C.

In turn, `CC(C)c1ccc(S(=O)(=O)c2c(N)c3nccn3c3nccnc23)cc1` [Example 4, 5-[(4-isopropylphenyl)sulfonyl]-imidazo[1′,2′:1,6]pyrido[2,3-b]pyrazin-6-amine] gave a melting point of 241 to 244 °C.

The compound `CCCc1ccc(S(=O)(=O)c2c(N)c3nccn3c3nccnc23)cc1` [Example 5, 5-[(4-propylphenyl)sulfonyl]-imidazo[1′,2′:1,6]pyrido[2,3-b]pyrazin-6-amine] showed a melting point of 231 to 232 °C.

As for `COc1ccc(S(=O)(=O)c2c(N)c3nccn3c3nccnc23)cc1` [Example 6, 5-[(4-methoxyphenyl)sulfonyl]-imidazo[1′,2′:1,6]pyrido[2,3-b]pyrazin-6-amine], the melting point fell in the range of 269 to 270 °C.

Take `Nc1c(S(=O)(=O)c2ccc(O)cc2)c2nccnc2n2ccnc12` [Example 8, 5-[(4-Hydroxyphenyl)sulfonyl]-imidazo[1′,2′:1,6]pyrido[2,3-b]pyrazin-6-amine]: the melting point was above 300 °C.

The values are drawn from patent publication US6555538B2, “5-arylsulfonyl-imidazo[1′,2′:1,6]pyrido[2,3-b]pyrazine-6-amines and related compounds” (Pfizer Inc, priority 1999, dated 2003).
